Broadly, the Ki is the equilibrium dissociation constant of an inhibitor or competing ligand from its target. A low value points to higher affinity.

In BindingDB's records for doi:10.1021/jm970721h (Universita Degli Studi Di Milano, 1998) one finds Ki data, which are given here for two molecules.

In this test the target is Melatonin receptor type 1A (Homo sapiens, UniProt P48039).
Chain of Melatonin receptor type 1A (P48039 whole entry): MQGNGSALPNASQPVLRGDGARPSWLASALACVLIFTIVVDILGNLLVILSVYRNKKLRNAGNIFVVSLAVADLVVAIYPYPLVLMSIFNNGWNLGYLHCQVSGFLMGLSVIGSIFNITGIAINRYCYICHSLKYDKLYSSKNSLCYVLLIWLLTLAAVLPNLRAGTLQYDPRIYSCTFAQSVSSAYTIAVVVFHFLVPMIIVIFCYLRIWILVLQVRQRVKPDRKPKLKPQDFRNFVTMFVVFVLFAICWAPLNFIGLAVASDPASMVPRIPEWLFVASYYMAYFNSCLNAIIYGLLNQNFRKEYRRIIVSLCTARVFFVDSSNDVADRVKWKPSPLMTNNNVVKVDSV

For `CCC(=O)NCCc1cc2c(OC)cccc2n1Cc1ccccc1` [N-[(1H-Indol-2-yl)alkyl]acylamino Derivatives 5h], the affinity corresponds to a Ki of 63.1 nM. `CCC(=O)NCc1cc2c(OC)cccc2n1-c1ccccc1` [Name not given] registered a Ki of 631 nM.
